From patent US6737383B1, “Herbicidal oxadiazolidines” (priority 1999, dated 2004)

How the values were obtained:
[1] = tested on: giant foxtail; assay: Test B pre/postemergence giant foxtail; type: in vivo, Setaria faberii
In short: (§1)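 Response is a visual 0-to-10 score relative to untreated plants, where 0 means no effect and 10 means complete control, taken twelve to sixteen days after application. Treatments went onto soil at planting and onto foliage of 1- to 4-leaf plants, using a surfactant-containing non-phytotoxic solvent.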

[2] = tested on: sugar beet; assay: Test B pre/postemergence sugar beet; type: in vivo, Beta vulgaris
In short: as §1

[3] = tested on: rape; assay: Test B pre/postemergence rape; type: in vivo, Brassica napus
In short: as §1

[4] = tested on: bedstraw; assay: Test B pre/postemergence bedstraw; type: in vivo, Galium aparine
In short: as §1

[5] = tested on: surinam grass; assay: Test B pre/postemergence surinam grass; type: in vivo, Brachiaria decumbens
In short: as §1

[6] = tested on: velvetleaf; assay: Test B pre/postemergence velvetleaf; type: in vivo, Abutilon theophrasti
In short: as §1

[7] = tested on: rice; assay: Test B flood test rice; type: in vivo, Oryza sativa
In short: (§2)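 Flood test on plants grown to the 2-leaf stage; treated plants kept in greenhouse twelve to sixteen days, then visually rated against controls on a 0 (no effect) to 10 (complete control) scale.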

[8] = tested on: cocklebur; assay: Test B pre/postemergence cocklebur; type: in vivo, Xanthium strumarium
In short: as §1

[9] = tested on: crabgrass; assay: Test B pre/postemergence crabgrass; type: in vivo, Digitaria sanguinalis
In short: as §1

[10] = tested on: corn; assay: Test B pre/postemergence corn; type: in vivo, Zea mays
In short: as §1

[11] = tested on: bamyardgrass; assay: Test B flood test barnyardgrass; type: in vivo, Echinochloa crus-galli
In short: as §2

[12] = tested on: pigweed; assay: Test B pre/postemergence pigweed; type: in vivo, Amaranthus retroflexus
In short: as §1

[13] = tested on: wild oat; assay: Test B pre/postemergence wild oat; type: in vivo, Avena fatua
In short: as §1

[14] = tested on: blackgrass; assay: Test B pre/postemergence blackgrass; type: in vivo, Alopecurus myosuroides
In short: as §1

[15] = tested on: smallflower flatsedge; assay: Test B flood test smallflower flatsedge; type: in vivo, Cyperus difformis
In short: as §2

[16] = tested on: morningglory; assay: Test B pre/postemergence morningglory; type: in vivo, Ipomoea hederacea
In short: as §1

[17] = Postemergence, Rate 125 g/ha, scale of 0 to 10 where 0 is no effect and 10 is complete control
[18] = Preemergence, Rate 31 g/ha, visual rating, scale 0 to 10 (0 no effect, 10 complete control)
[19] = Preemergence, Rate 62 g/ha, scale 0 to 10 (0 no effect, 10 complete control)
[20] = Preemergence, Rate 125 g/ha, 0 is no effect, 10 is complete control
[21] = Preemergence, Rate 250 g/ha, scale 0 to 10, 0 is no effect, 10 is complete control
[22] = Preemergence, Rate 500 g/ha, scale 0 to 10 (0 no effect, 10 complete control)
[23] = Rate 31 g/ha, Postemergence, scale 0 to 10
[24] = Rate 62 g/ha, Postemergence, scale of 0 to 10 where 0 is no effect and 10 is complete control
[25] = Rate 250 g/ha, Postemergence, scale 0 to 10, 0 is no effect, 10 is complete control
[26] = Rate 500 g/ha, Postemergence, scale 0 to 10
[27] = Postemergence (flood test species), Rate 125 g/ha, scale of 0 to 10 where 0 is no effect and 10 is complete control
[28] = Rate 31 g/ha, Postemergence section (flood test species), scale 0 to 10
[29] = Rate 62 g/ha, Postemergence section, flood test species, scale of 0 to 10 where 0 is no effect and 10 is complete control
[30] = Rate 62 g/ha, headed Pre-emergence (flood test species), scale 0 to 10 (0 no effect, 10 complete control)
[31] = Rate 125 g/ha, Pre-emergence, flood test species, scale 0 to 10 where 0 is no effect and 10 is complete control
[32] = Rate 250 g/ha, Postemergence (flood test), scale 0 to 10, 0 is no effect, 10 is complete control
[33] = Rate 250 g/ha, Pre-emergence, flood-test species, scale 0 to 10, 0 is no effect, 10 is complete control
[34] = Rate 500 g/ha, headed Pre-emergence (flood test species), scale 0 to 10 (0 no effect, 10 complete control)
[35] = Rate 500 g/ha, listed under Postemergence (flood test species), scale 0 to 10

C=CCn1c(=O)on(C(=O)N(c2ccc(F)cc2)C(C)C)c1=O [Compound 146]
Giant foxtail plant response rating [1, 17]: 9 | Giant foxtail plant response rating [1, 18]: 9 | Giant foxtail plant response rating [1, 19]: 10 | Giant foxtail plant response rating (0 to 10 scale) [1, 20]: 10 | Giant foxtail plant response rating [1, 21]: 10 | Giant foxtail plant response rating [1, 22]: 10 | Giant foxtail plant response rating [1, 23]: 3 | Giant foxtail plant response rating [1, 24]: 8 | Plant response rating, Giant foxtail [1, 25]: 9 | Giant foxtail plant response rating [1, 26]: 9 | Sugarbeets plant response rating [2, 17]: 3 | Sugarbeets plant response rating [2, 18]: 5 | Sugarbeets plant response rating [2, 19]: 8 | Sugarbeets plant response rating (0 to 10 scale) [2, 20]: 9 | Sugarbeets plant response rating [2, 21]: 10 | Sugarbeets plant response rating [2, 22]: 10 | Sugarbeets plant response rating [2, 24]: 1 | Plant response rating, Sugarbeets [2, 25]: 4 | Sugarbeets plant response rating [2, 26]: 6 | Rape plant response rating [3, 17]: 2 | Rape plant response rating [3, 18]: 0 | Rape plant response rating [3, 19]: 2 | Rape plant response rating (0 to 10 scale) [3, 20]: 10 | Rape plant response rating [3, 21]: 10 | Rape plant response rating [3, 22]: 10 | Rape plant response rating [3, 23]: 0 | Rape plant response rating [3, 24]: 2 | Plant response rating, Rape [3, 25]: 3 | Rape plant response rating [3, 26]: 5 | Bedstraw plant response rating [4, 17]: 6 | Bedstraw plant response rating [4, 18]: 0 | Bedstraw plant response rating [4, 19]: 9 | Bedstraw plant response rating (0 to 10 scale) [4, 20]: 9 | Bedstraw plant response rating [4, 21]: 10 | Bedstraw plant response rating [4, 22]: 7 | Bedstraw plant response rating [4, 23]: 0 | Bedstraw plant response rating [4, 24]: 2 | Plant response rating, Bedstraw [4, 25]: 7 | Bedstraw plant response rating ([4]; Rate 500 g/ha, Postemergence, scale 0 to 10, 0 no effect, 10 complete control): 8 | B. signalgrass plant response rating [5, 17]: 8 | B. signalgrass plant response rating [5, 18]: 7 | B. signalgrass plant response rating [5, 19]: 9 | B. signalgrass plant response rating (0 to 10 scale) [5, 20]: 9 | B. signalgrass plant response rating [5, 21]: 10 | B. signalgrass plant response rating [5, 22]: 10 | B. signalgrass plant response rating [5, 23]: 0 | B. signalgrass plant response rating [5, 24]: 4 | Plant response rating, B. signalgrass [5, 25]: 8 | B. signalgrass plant response rating ([5]; Rate 500 g/ha, Postemergence, scale of 0 to 10 where 0 is no effect and 10 is complete control): 9 | Velvetleaf plant response rating [6, 17]: 2 | Velvetleaf plant response rating [6, 18]: 3 | Velvetleaf plant response rating [6, 19]: 7 | Velvetleaf plant response rating (0 to 10 scale) [6, 20]: 7 | Velvetleaf plant response rating [6, 21]: 8 | Velvetleaf plant response rating [6, 22]: 8 | Velvetleaf plant response rating [6, 24]: 0 | Plant response rating, Velvetleaf [6, 25]: 6 | Velvetleaf plant response rating [6, 26]: 6 | Rice plant response rating [7, 27]: 0 | Rice plant response rating [7, 28]: 0 | Rice plant response rating [7, 29]: 0 | Rice plant response rating [7, 30]: 0 | Rice plant response rating [7, 31]: 0 | Plant response rating, Rice [7, 32]: 2 | Rice plant response rating [7, 33]: 0 | Plant response rating, Rice [7, 34]: 0 | Rice plant response rating [7, 35]: 7 | Cocklebur plant response rating [8, 17]: 2 | Cocklebur plant response rating [8, 18]: 0 | Cocklebur plant response rating [8, 19]: 0 | Cocklebur plant response rating (0 to 10 scale) [8, 20]: 0 | Cocklebur plant response rating [8, 21]: 0 | Cocklebur plant response rating [8, 22]: 0 | Cocklebur plant response rating [8, 23]: 0 | Cocklebur plant response rating [8, 24]: 2 | Plant response rating, Cocklebur [8, 25]: 3 | Cocklebur plant response rating [8, 26]: 4 | Crabgrass plant response rating [9, 17]: 9 | Crabgrass plant response rating [9, 18]: 5 | Crabgrass plant response rating [9, 19]: 8 | Crabgrass plant response rating (0 to 10 scale) [9, 20]: 8 | Crabgrass plant response rating [9, 21]: 9 | Crabgrass plant response rating [9, 22]: 10 | Crabgrass plant response rating [9, 23]: 5 | Crabgrass plant response rating [9, 24]: 8 | Plant response rating, Crabgrass [9, 25]: 9 | Crabgrass plant response rating [9, 26]: 9 | Corn plant response rating [10, 17]: 0 | Corn plant response rating [10, 18]: 0 | Corn plant response rating [10, 19]: 3 | Corn plant response rating (0 to 10 scale) [10, 20]: 5 | Corn plant response rating [10, 21]: 8 | Corn plant response rating [10, 22]: 9 | Corn plant response rating [10, 23]: 0 | Corn plant response rating [10, 24]: 0 | Plant response rating, Corn [10, 25]: 0 | Corn plant response rating [10, 26]: 0 | Barnyardgrass plant response rating [11, 27]: 0 | Barnyardgrass plant response rating [11, 28]: 0 | Barnyardgrass plant response rating [11, 29]: 0 | Barnyardgrass plant response rating [11, 30]: 0 | Barnyardgrass plant response rating [11, 31]: 0 | Plant response rating, Barnyardgrass [11, 32]: 1 | Barnyardgrass plant response rating [11, 33]: 1 | Plant response rating, Barnyardgrass [11, 34]: 5 | Barnyardgrass plant response rating ([11]; Rate 500 g/ha, listed under Postemergence (flood test species), scale 0 to 10, 0 no effect, 10 complete control): 9 | Redroot pigweed plant response rating [12, 17]: 6 | Redroot pigweed plant response rating [12, 18]: 10 | Redroot pigweed plant response rating [12, 19]: 10 | Redroot pigweed plant response rating (0 to 10 scale) [12, 20]: 10 | Redroot pigweed plant response rating [12, 21]: 10 | Redroot pigweed plant response rating [12, 22]: 10 | Redroot pigweed plant response rating [12, 23]: 0 | Redroot pigweed plant response rating [12, 24]: 4 | Plant response rating, Redroot pigweed [12, 25]: 6 | Redroot pigweed plant response rating [12, 26]: 8 | Wild oats plant response rating [13, 17]: 3 | Wild oats plant response rating [13, 18]: 1 | Wild oats plant response rating [13, 19]: 9 | Wild oats plant response rating (0 to 10 scale) [13, 20]: 10 | Wild oats plant response rating [13, 21]: 10 | Wild oats plant response rating [13, 22]: 10 | Wild oats plant response rating [13, 24]: 2 | Plant response rating, Wild oats [13, 25]: 6 | Wild oats plant response rating [13, 26]: 7 | Blackgrass plant response rating [14, 17]: 8 | Blackgrass plant response rating [14, 18]: 7 | Blackgrass plant response rating [14, 19]: 8 | Blackgrass plant response rating (0 to 10 scale) [14, 20]: 10 | Blackgrass plant response rating [14, 21]: 10 | Blackgrass plant response rating [14, 22]: 10 | Blackgrass plant response rating [14, 23]: 4 | Blackgrass plant response rating [14, 24]: 8 | Plant response rating, Blackgrass [14, 25]: 8 | Blackgrass plant response rating [14, 26]: 8 | S. Flatsedge plant response rating [15, 27]: 0 | S. Flatsedge plant response rating [15, 29]: 0 | S. Flatsedge plant response rating [15, 30]: 0 | S. Flatsedge plant response rating [15, 31]: 0 | Plant response rating, S. Flatsedge [15, 32]: 3 | S. Flatsedge plant response rating [15, 33]: 0 | S. Flatsedge plant response rating [15, 35]: 9 | S. Flatsedge plant response rating ([15]; Rate 500 g/ha, Pre-emergence, flood test species, scale 0 to 10 (0 no effect, 10 complete control)): 1 | Morningglory plant response rating [16, 17]: 5 | Morningglory plant response rating [16, 18]: 0 | Morningglory plant response rating [16, 19]: 2 | Morningglory plant response rating (0 to 10 scale) [16, 20]: 3 | Morningglory plant response rating [16, 21]: 3 | Morningglory plant response rating [16, 22]: 4 | Morningglory plant response rating [16, 23]: 2 | Morningglory plant response rating [16, 24]: 3 | Plant response rating, Morningglory [16, 25]: 8 | Morningglory plant response rating [16, 26]: 9
